Here are results for 19 molecules from patent US12448399B2, “Cereblon-based KRAS degrading PROTACs and uses related thereto” (Arvinas Operations, Inc., priority 2023, dated 2025).

The assay addresses T1, KRas-G12D (Homo sapiens, UniProt P01116, G12D).
T1 construct: insert the HiBiT tag onto the N-terminus of one or more of the endogenous KRas alleles; host or cells: AsPC-1 HiBiT-KRasG12D knock-in clone (one tagged allele, two untagged KRasG12D alleles)
Nature of the assay: HiBiT Degradation Assay (G12D), AsPC-1 HiBiT-KRasG12D cells, 24 hr. The class given is cell-based. To be noted: for DC50: AsPC-1 cells; for Dmax: ASPC1, AsPC-1 cells, maximum degradation observed. Summed up: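 AsPC-1 cells with CRISPR N-terminal HiBiT knock-in on one endogenous KRasG12D allele, treated 24 hr at 37° C with compound titrations in 0.5% DMSO. Lytic HiBiT luminescence normalized to DMSO, fitted to a 4-parameter model for DC50 and Dmax. Parallel alamar blue (4 hr) checked viability.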

T1 sequence (P01116 1-188 isoform P01116-2 G12D): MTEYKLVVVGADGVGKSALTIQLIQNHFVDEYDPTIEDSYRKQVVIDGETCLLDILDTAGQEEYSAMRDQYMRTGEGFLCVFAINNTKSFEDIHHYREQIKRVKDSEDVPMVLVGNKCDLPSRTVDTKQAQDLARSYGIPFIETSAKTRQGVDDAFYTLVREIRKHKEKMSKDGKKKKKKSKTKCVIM

The molecule `CCc1cccc2cc(O)cc(-c3ncc4c(N5CC6CCC(C5)N6)nc(OC[C@@]56CCCN5[C@H](COC(=O)N5CCN(c7cccc8c7C(=O)N(C7CCC(=O)NC7=O)C8=O)CC5)CC6)nc4c3F)c12` (stereo partly drawn) [Compound 64, [(3S,8S)-8-[[4-(3,8-diazabicyclo[3.2.1]octan-3-yl)-7-(8-ethyl-3-hydroxy-1-naphthyl)-8-fluoro-pyrido[4,3-d]pyrimidin-2-yl]oxymethyl]-1,2,3,5,6,7-hexahydropyrrolizin-3-yl]methyl 4-[2-(2,6-dioxo-3-piperidyl)-1,3-dioxo-isoindolin-4-yl]piperazine-1-carboxylate] came in with a DC50 of 0.1 to 5.25 µM. On the same count and under the same terms, then `CCc1cccc2cc(O)cc(-c3ncc4c(N5CC6CCC(C5)N6)nc(OC[C@]56CCCN5[C@@H](COC(=O)N5CCN(c7cccc8c7C(=O)N(C7CCC(=O)NC7=O)C8=O)CC5)CC6)nc4c3F)c12` (stereo partly drawn) [Compound 65, [(3R,8R)-8-[[4-(3,8-diazabicyclo[3.2.1]octan-3-yl)-7-(8-ethyl-3-hydroxy-1-naphthyl)-8-fluoro-pyrido[4,3-d]pyrimidin-2-yl]oxymethyl]-1,2,3,5,6,7-hexahydropyrrolizin-3-yl]methyl 4-[2-(2,6-dioxo-3-piperidyl)-1,3-dioxo-isoindolin-4-yl]piperazine-1-carboxylate], with 0.25 to 1 µM. Molecule `CCc1cccc2cc(O)cc(-c3ncc4c(N5CC6CCC(C5)N6)nc(OCCN5CCC(CC6CCN(c7cccc8c7C(=O)N(C7CCC(=O)NC7=O)C8=O)CC6)CC5)nc4c3F)c12` (stereo not shown) [Compound 66, 4-[4-[[1-[2-[4-(3,8-diazabicyclo[3.2.1]octan-3-yl)-7-(8-ethyl-3-hydroxy-1-naphthyl)-8-fluoro-pyrido[4,3-d]pyrimidin-2-yl]oxyethyl]-4-piperidyl]methyl]-1-piperidyl]-2-(2,6-dioxo-3-piperidyl)isoindoline-1,3-dione] came in with a maximal degradation (Dmax) of at most 25% and a DC50 of 0.25 to 1 µM.

Regarding `CCc1cccc2cc(O)cc(-c3ncc4c(N5CC6CCC(C5)N6)nc(OCCN5CCC(CC6CCN(c7ccc8c(c7)C(=O)N(C7CCC(=O)NC7=O)C8=O)CC6)CC5)nc4c3F)c12` (stereo not shown) [Compound 67, 5-[4-[[1-[2-[4-(3,8-diazabicyclo[3.2.1]octan-3-yl)-7-(8-ethyl-3-hydroxy-1-naphthyl)-8-fluoro-pyrido[4,3-d]pyrimidin-2-yl]oxyethyl]-4-piperidyl]methyl]-1-piperidyl]-2-(2,6-dioxo-3-piperidyl)isoindoline-1,3-dione], the DC50 was over 1 µM. Consider `C#Cc1c(F)ccc2cc(O)cc(-c3ncc4c(C5CC6CCC(C5)N6)nc(OCCN5CCC(CC6CCN(CC7CCN(c8ccc9c(c8)CN(C8CCC(=O)NC8=O)C9=O)CC7)CC6)CC5)nc4c3F)c12` (stereo not shown) [Compound 68], for which the Dmax is over 70% and the half-maximal degradation concentration (DC50) is under 5.1 µM. On to `C#Cc1c(F)ccc2cc(O)cc(-c3ncc4c(C5CC6CCC(C5)N6)nc(OCCN5CCC6(CC5)CCN(CC5CCN(c7ccc8c(c7)CN(C7CCC(=O)NC7=O)C8=O)CC5)CC6)nc4c3F)c12` (stereo not shown) [Compound 70], for which the Dmax was over 70% and the DC50 is under 5.1 µM. On the same counts, the results for `CCc1cccc2cc(O)cc(-c3ncc4c(C5CC6CCC(C5)N6)nc(OC[C@@H]5C[C@@H](OC6CCN(CC7CCN(c8ccc9c(c8)CN(C8CCC(=O)NC8=O)C9=O)CC7)CC6)CN5C)nc4c3F)c12` (stereo partly shown) [Compound 71] are over 70% and under 5.1 µM. `C#Cc1c(F)ccc2cc(O)cc(-c3ncc4c(C5CC6CCC(C5)N6)nc(OCCN5CCC(CN6CC7(CCN(c8ccc9c(c8)CN(C8CCC(=O)NC8=O)C9=O)CC7)C6)CC5)nc4c3F)c12` (stereo not shown) [Compound 72] showed a maximal degradation (Dmax) of over 70% and a 50% degradation concentration (DC50) of under 5.1 µM.

The molecule `C#Cc1c(F)ccc2cc(O)cc(-c3ncc4c(C5CC6CCC(C5)N6)nc(OCCN5CCC(CC6CCN(CC7CCN(c8ccc9c(c8)C(=O)N(C8CCC(=O)NC8=O)C9=O)CC7)CC6)CC5)nc4c3F)c12` (stereo not shown) [Compound 74] had a Dmax of over 70% and a 50% degradation concentration (DC50) of under 5.1 µM. In turn, `C#Cc1c(F)ccc2cc(O)cc(-c3ncc4c(N5CC6CCC(C5)N6)nc(OCCN5CCC(CC6CCN(CC7CCN(c8cccc9c8C(=O)N(C8CCC(=O)NC8=O)C9=O)CC7)CC6)CC5)nc4c3F)c12` (stereo not shown) [Compound 75] showed a DC50 of under 5.1 µM. In turn, `C#Cc1c(F)ccc2cc(O)cc(-c3ncc4c(N5CC6CCC(C5)N6)nc(OCCN5CCC6(CC5)CCN(CC5CCN(c7ccc8c(c7)C(=O)N(C7CCC(=O)NC7=O)C8=O)CC5)CC6)nc4c3F)c12` (stereo not shown) [Compound 76] registered a Dmax of over 70% and a half-maximal degradation concentration (DC50) of under 5.1 µM.

`CCc1cccc2cc(O)cc(-c3ncc4c(N5CC6CCC(C5)N6)nc(OC[C@@H]5C[C@@H](OC6CCN(c7ccc8c(c7)CN(C7CCC(=O)NC7=O)C8=O)CC6)CN5C)nc4c3F)c12` (stereo partly shown) [Compound 77] yielded a Dmax of over 70% and a 50% degradation concentration (DC50) of under 5.1 µM. The matching figures for `C#Cc1c(F)ccc2cc(O)cc(-c3ncc4c(N5CC6CCC(C5)N6)nc(OCCN5CCC(C(F)(F)C6CCN(CC7CCN(c8ccc9c(c8F)CN(C8CCC(=O)NC8=O)C9=O)CC7)CC6)CC5)nc4c3F)c12` (stereo not shown) [Compound 79, 3-{5-[4-({4-[(1-{2-[(4-{3,8-diazabicyclo[3.2.1]octan-3-yl}-7-(8-ethynyl-7-fluoro-3-hydroxynaphthalen-1-yl)-8-fluoropyrido[4,3-d]pyrimidin-2-yl)oxy]ethyl}piperidin-4-yl)difluoromethyl]piperidin-1-yl}methyl)piperidin-1-yl]-4-fluoro-1-oxo-2,3-dihydro-1H-isoindol-2-yl}piperidine-2,6-dione]: over 70% and under 5.1 µM. On the same counts, the results for `C#Cc1c(F)ccc2cc(O)cc(-c3ncc4c(N5CC6CCC(C5)N6)nc(OCCN5CCC(CN6CCC(CC7CCN(c8ccc9c(c8)n(C(C)C)c(=O)n9C8CCC(=O)NC8=O)CC7)CC6)CC5)nc4c3F)c12` (stereo not shown) [Compound 80, 3-{5-[4-({1-[(1-{2-[(4-{3,8-diazabicyclo[3.2.1]octan-3-yl}-7-(8-ethynyl-7-fluoro-3-hydroxynaphthalen-1-yl)-8-fluoropyrido[4,3-d]pyrimidin-2-yl)oxy]ethyl}piperidin-4-yl)methyl]piperidin-4-yl}methyl)piperidin-1-yl]-2-oxo-3-(propan-2-yl)-2,3-dihydro-1H-1,3-benzodiazol-1-yl}piperidine-2,6-dione] are over 70% and under 5.1 µM. As for `C#Cc1c(F)ccc2cc(O)cc(-c3ncc4c(N5CC6CCC(C5)N6)nc(OCCN5CCC(CN6CCC(CC7CCN(c8ccc9c(c8Cl)CN(C8CCC(=O)NC8=O)C9=O)CC7)CC6)CC5)nc4c3F)c12` (stereo not shown) [Compound 81, 3-{4-chloro-5-[4-({1-[(1-{2-[(4-{3,8-diazabicyclo[3.2.1]octan-3-yl}-7-(8-ethynyl-7-fluoro-3-hydroxynaphthalen-1-yl)-8-fluoropyrido[4,3-d]pyrimidin-2-yl)oxy]ethyl}piperidin-4-yl)methyl]piperidin-4-yl}methyl)piperidin-1-yl]-1-oxo-2,3-dihydro-1H-isoindol-2-yl}piperidine-2,6-dione], the Dmax is over 70% and the half-maximal degradation concentration (DC50) was under 5.1 µM.

`C#Cc1c(F)ccc2cc(O)cc(-c3ncc4c(N5CC6CCC(C5)N6)nc(OCCN5CCC(CN6CCC(CC7CCN(c8ccc9c(c8)n(C)c(=O)n9C8CCC(=O)NC8=O)CC7)CC6)CC5)nc4c3F)c12` (stereo not shown) [Compound 82, 3-{5-[4-({1-[(1-{2-[(4-{3,8-diazabicyclo[3.2.1]octan-3-yl}-7-(8-ethynyl-7-fluoro-3-hydroxynaphthalen-1-yl)-8-fluoropyrido[4,3-d]pyrimidin-2-yl)oxy]ethyl}piperidin-4-yl)methyl]piperidin-4-yl}methyl)piperidin-1-yl]-3-methyl-2-oxo-2,3-dihydro-1H-1,3-benzodiazol-1-yl}piperidine-2,6-dione] displayed a Dmax of over 70% and a DC50 of under 5.1 µM. In the case of `C#Cc1c(F)ccc2cc(O)cc(-c3ncc4c(N5CC6CCC(C5)N6)nc(OCCN5CCC6(CC5)CCN(CC5CCN(c7cccc8c7n(C)c(=O)n8C7CCC(=O)NC7=O)CC5)CC6)nc4c3F)c12` (stereo not shown) [Compound 83, 3-(4-{4-[(9-{2-[(4-{3,8-diazabicyclo[3.2.1]octan-3-yl}-7-(8-ethynyl-7-fluoro-3-hydroxynaphthalen-1-yl)-8-fluoropyrido[4,3-d]pyrimidin-2-yl)oxy]ethyl}-3,9-diazaspiro[5.5]undecan-3-yl)methyl]piperidin-1-yl}-3-methyl-2-oxo-2,3-dihydro-1H-1,3-benzodiazol-1-yl)piperidine-2,6-dione], the greatest degradation seen (Dmax) was over 70% and the DC50 was under 5.1 µM.

`C#Cc1c(F)ccc2cc(O)cc(-c3ncc4c(N5CC6CCC(C5)N6)nc(OC[C@]56CCCN5[C@H](CN5CCN(CC7CCN(c8ccc9c(c8)CN(C8CCC(=O)NC8=O)C9=O)CC7)CC5)CC6)nc4c3F)c12` (stereo partly drawn) [Compound 84, 3-[5-[4-[[4-[[(3S,8R)-8-[[4-(3,8-diazabicyclo[3.2.1]octan-3-yl)-7-(8-ethynyl-7-fluoro-3-hydroxy-1-naphthyl)-8-fluoro-pyrido[4,3-d]pyrimidin-2-yl]oxymethyl]-1,2,3,5,6,7-hexahydropyrrolizin-3-yl]methyl]piperazin-1-yl]methyl]-1-piperidyl]-1-oxo-isoindolin-2-yl]piperidine-2,6-dione]: the Dmax was over 70% and the 50% degradation concentration (DC50) was under 5.1 µM. The molecule `CCc1c(F)ccc2cc(O)cc(-c3ncc4c(N5CC6CCC(C5)N6)nc(OC[C@@H]5C[C@@H](OC6CCN(CC7CCN(c8ccc9c(c8)CN(C8CCC(=O)NC8=O)C9=O)CC7)CC6)CN5C)nc4c3F)c12` (stereo partly drawn) [Compound 85, 3-(5-{4-[(4-{[(3R,5S)-5-{[(4-{3,8-diazabicyclo[3.2.1]octan-3-yl}-7-(8-ethyl-7-fluoro-3-hydroxynaphthalen-1-yl)-8-fluoropyrido[4,3-d]pyrimidin-2-yl)oxy]methyl}-1-methylpyrrolidin-3-yl]oxy}piperidin-1-yl)methyl]piperidin-1-yl}-1-oxo-2,3-dihydro-1H-isoindol-2-yl)piperidine-2,6-dione] displayed a Dmax of over 70% and a DC50 of under 5.1 µM.
